The term Kd denotes the equilibrium constant for the complex coming apart. The low end stands for tighter binding, the high end for weaker binding.

Experiment [1] has as its target T1, IRAK4 (Homo sapiens, UniProt Q9NWZ3).
T1 sequence (Q9NWZ3 1-460): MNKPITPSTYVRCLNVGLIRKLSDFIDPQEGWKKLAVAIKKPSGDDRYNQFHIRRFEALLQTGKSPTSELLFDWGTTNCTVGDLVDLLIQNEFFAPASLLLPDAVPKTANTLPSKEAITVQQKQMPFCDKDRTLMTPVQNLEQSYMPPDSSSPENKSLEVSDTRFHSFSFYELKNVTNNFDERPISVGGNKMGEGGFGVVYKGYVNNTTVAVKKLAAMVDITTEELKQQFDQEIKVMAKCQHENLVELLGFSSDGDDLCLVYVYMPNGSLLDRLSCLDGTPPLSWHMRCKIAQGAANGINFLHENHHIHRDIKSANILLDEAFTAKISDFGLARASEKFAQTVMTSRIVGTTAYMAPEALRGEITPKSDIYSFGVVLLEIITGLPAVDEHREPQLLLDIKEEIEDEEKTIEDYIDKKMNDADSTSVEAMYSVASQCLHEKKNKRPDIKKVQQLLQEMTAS
Put plainly: DiscoverX KINOMEscan competition binding, IRAK4. Also on record: purchased RBC (Reaction Biology) HotSpot assay. The conditions noted are these: no ATP. The text has this:
(§1) Kinase binding data were obtained for various exemplary compounds prepared according to Examples 2-15 using the DiscoverX KINOMEscan® active site-directed competition binding site-directed assay protocol described below. […] As a result, the data report thermodynamic interaction affinities (Kd values), rather than IC50 values that are dependent on ATP concentrations. The assay uses a DNA-tagged version of the protein kinase, and an immobilized ligand bound to a solid support. Compounds that directly or indirectly prevent kinase binding to the immobilized ligand reduce the amount of kinase captured on the solid support, which is detected using an ultra-sensitive qPCR method. Affinity constants reported from the assay have been reported to be independent of the immobilized ligand used that is coupled to the solid support (See supplemental information in Fabian, M. A. et. al., (2005) Nat. […] Wodicka, L. […] Biol. 17, 1241-1249.) Kinase-tagged T7 phage strains were prepared in an E. coli host derived from the BL21 strain. E. coli were grown to log-phase and infected with T7 phage and incubated with shaking at 32° C. until lysis. […] Kds were determined using an 11-point 3-fold compound dilution series with three DMSO control points. […] The kinase concentration in the eluates was measured by qPCR. Binding constants (Kds) were calculated with a standard dose-response curve using the Hill equation. […]

The target of experiment [2] is T2, FLT3 D835V (Homo sapiens, UniProt P36888, D835V).
T2 construct: purchased DiscoverX (KINOMEscan); host or cells: E. coli (T7 phage) or HEK-293
T2 sequence (P36888 27-993 D835V): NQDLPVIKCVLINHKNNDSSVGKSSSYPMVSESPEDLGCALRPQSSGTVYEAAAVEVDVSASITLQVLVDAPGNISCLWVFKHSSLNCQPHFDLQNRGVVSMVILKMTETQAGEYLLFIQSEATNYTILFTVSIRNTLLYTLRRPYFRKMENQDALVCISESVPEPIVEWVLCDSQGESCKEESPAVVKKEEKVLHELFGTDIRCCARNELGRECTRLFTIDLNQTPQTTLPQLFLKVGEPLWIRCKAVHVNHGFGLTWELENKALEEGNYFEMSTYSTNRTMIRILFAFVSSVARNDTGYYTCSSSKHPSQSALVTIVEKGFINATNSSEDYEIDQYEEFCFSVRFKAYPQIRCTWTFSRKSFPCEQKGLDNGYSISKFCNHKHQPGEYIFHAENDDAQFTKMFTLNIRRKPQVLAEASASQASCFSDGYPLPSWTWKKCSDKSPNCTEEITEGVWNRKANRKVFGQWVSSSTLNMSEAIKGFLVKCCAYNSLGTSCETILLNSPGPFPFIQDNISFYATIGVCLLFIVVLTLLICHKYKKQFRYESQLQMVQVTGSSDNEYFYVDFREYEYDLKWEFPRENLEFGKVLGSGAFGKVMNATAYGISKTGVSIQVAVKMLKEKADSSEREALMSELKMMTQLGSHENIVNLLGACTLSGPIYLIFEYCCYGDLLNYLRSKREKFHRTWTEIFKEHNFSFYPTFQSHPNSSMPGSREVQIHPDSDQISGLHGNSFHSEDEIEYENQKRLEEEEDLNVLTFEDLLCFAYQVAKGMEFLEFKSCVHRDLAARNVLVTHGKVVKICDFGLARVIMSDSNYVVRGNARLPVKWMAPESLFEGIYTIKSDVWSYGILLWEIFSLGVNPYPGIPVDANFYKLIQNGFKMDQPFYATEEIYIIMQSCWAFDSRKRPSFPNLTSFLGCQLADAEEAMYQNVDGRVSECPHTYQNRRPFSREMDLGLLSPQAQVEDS
Briefly: DiscoverX KINOMEscan competition binding, FLT3 D835V. The conditions noted are these: no ATP.
Text: as §1

`COc1cc2ncc(-c3nc(N[C@H]4CNCC[C@@H]4F)c(F)cc3F)n2nc1C1CCC1` [Compound 15a, 6-(6-cyclobutyl-7-methoxyimidazo[1,2-b]pyridazin-3-yl)-3,5-difluoro-N-((3S,4S)-4-fluoropiperidin-3-yl)pyridin-2-amine]: the dissociation constant Kd was 0.32 nM in experiment [1] and less than 0.17 nM in experiment [2].

(Values after patent US20250368648A1, “MULTI-CYCLIC IRAK AND FLT3 INHIBITING COMPOUNDS AND USES THEREOF” (CHILDREN'S HOSPITAL MEDICAL CENTER, priority 2022, published 2025).)
